Laboratory results published in US20100240029A1, “Cholesterol-Regulating Complex of SIRT1 and LXR and Methods of Use” (Massachusetts Institute of Technology, priority 2006, published 2010).
Read-outs that look alike come from different tables or passages of the source. Peptide text beside a SMILES is read from it. * marks the point of attachment. Cbz = O=C(OCc1ccccc1)*

Tests used:
[1] = tested on: T1, NH2-terminal HA-tagged mouse LXRβ
T1 sequence: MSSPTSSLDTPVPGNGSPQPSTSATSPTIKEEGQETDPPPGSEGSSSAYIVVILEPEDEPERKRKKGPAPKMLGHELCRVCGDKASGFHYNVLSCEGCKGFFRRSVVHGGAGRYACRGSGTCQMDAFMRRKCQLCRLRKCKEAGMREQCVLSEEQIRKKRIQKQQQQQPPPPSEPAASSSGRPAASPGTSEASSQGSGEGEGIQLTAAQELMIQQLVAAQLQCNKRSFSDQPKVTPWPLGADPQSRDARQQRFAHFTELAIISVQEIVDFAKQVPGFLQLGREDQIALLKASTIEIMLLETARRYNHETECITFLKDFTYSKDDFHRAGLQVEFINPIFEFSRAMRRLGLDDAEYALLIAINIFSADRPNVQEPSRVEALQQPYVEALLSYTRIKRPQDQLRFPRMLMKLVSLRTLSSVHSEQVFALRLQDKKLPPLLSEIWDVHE

[2] = tested on: mouse ABCA1 promoter (LXRE); assay: mouse ABCA1 promoter driven luciferase reporter assay in HEK293T cells; format: cell-based; conditions: for basal activity of control reporter missing the LXRE / induction of luciferase reporter driven by wildtype ABCA1 promoter: 6 h; for basal activity of control reporter missing the LXRE: 10 mM nicotinamide or 25 μM MG132; for induction of luciferase reporter driven by wildtype ABCA1 promoter: with 10 μM 22(R)—HC and 1 μM 9-cisRA, 10 mM nicotinamide, 25 μM MG132 or both; for inhibition of 22(R)—HC+9-cisRA-induced luciferase expression, wildtype ABCA1 promoter: 10 mM nicotinamide or 1 μM TSA
Procedure: The luciferase reporter plasmid pGL3-ABCA1 was created by inserting the −847 to +244 of mouse ABCA1 promoter region into KpnI-XhoI sites of pGL3 vector (Promega, Madison, Wi). pGL3-ABCA1-LXRE, the LXRE mutant version of pGL3-ABCA1, was created by deleting the LXRE from wildtype promoter of mouse ABCA1.
For the luciferase assay, MEFIs or HEK293T cells plated in 24-well plates were transfected with 100 ng of pGL3-ABCA1 or pGL3-ABCA1-LXRE, and 10 ng of pRL-TK (Renilla luciferase; Promega). The cells transfected with wildtype (WT) or LXRE mutant (−LXRE) mouse ABCA1 promoter driven luciferase reporter vectors were treated with 1 μM Trichostatin A (TSA), an inhibitor of class I and II deacetylases, or 10 mM nicotinamide (Nico), or both 10 mM nicotinamide+1 μM TSA. Cells transfected with the LXRE mutant vector were incubated in DMEM with 10% FBS in the absence (solid bars) or presence (open bars) of 10 μM 22(R)—HC and 1 μM 9-cisRA (FIG. 2b). Luciferase activity was then measured by using the Dual-Luciferase Reporter Assay System (Promega) 6 or 24 h later. The final GL (firefly luciferase) activity was normalized with co-expressed RL (Renilla luciferase) activity. The experiments were performed in duplicate and were repeated 3 times.
HEK293T cells transfected with wildtype (WT; FIG. 4g, left panel) or LXRE mutant (−LXRE; FIG. 4g, right panel) mouse ABCA1 promoter driven luciferase reporter vectors were treated with either 10 mM nicotinamide (Nico), 25 μM MG132, or both 10 mM nicotinamide+25 μM MG132, in the absence (solid bars) or presence (open bars) of 10 μM 22(R)—HC and 1 μM 9-cisRA for 6 h. Luciferase activities were measured and normalized as in Example 5.

[3] = tested on: HA-LXRβ; assay: HA-LXRβ protein level in HEK293T cells by western blotting; format: cell-based, mouse; conditions: 6 h; for levels of HA-LXRβ protein: 1 μM TSA, 10 mM nicotinamide or 25 μM MG132
Procedure: HEK293T cells expressing HA-LXRβ driven by an exogenous CMV promoter were transfected either with pSuper vector, or with a pSuper-SIRT1 RNAi construct. Cells were harvested 3 days after transfection and the levels of HA-LXRβ and SIRT1 were analyzed by western blotting using antibodies to HA and SIRT1. […] Since there was no detectable reduction of LXR mRNA in SIRT1−/− mice (FIG. 3a), SIRT1 regulates LXR protein levels post-transcriptionally.
HEK293T cells expressing HA-LXRβ were treated with either control medium (FIG. 3c, lane 1), or medium with 1 μM TSA (lane 2), 10 mM nicotinamide (lane 3), 25 μM MG132 (carbobenzyloxy-Leu-Leu-Leu-al, a proteasome inhibitor) (lane 4), or 10 mM nicotinamide plus 25 μM MG132 (lane 5) for 6 h. Cells were then harvested and the levels of HA-LXRβ and SIRT1 were analyzed by western blotting using antibodies to HA (upper images) and SIRT1 (middle images). […] Since there was no detectable reduction of LXR's mRNA in SIRT1−/− mice (see Example 9, FIG. 3a), SIRT1 regulates LXR protein levels post-transcriptionally. It is believed that inhibition of SIRT1 activity by nicotinamide increases the protein levels of LXR by interfering with proteasome-mediated LXR degradation.
The basis for the finding that LXR activity is inversely correlated with protein levels was next examined. Since acetylation of lysine residues can block ubiquitination and SIRT1 is a deacetylase, loss of SIRT1 activity might stabilize LXR proteins by increasing the steady state level of LXR acetylation, thus inhibiting the ubiquitin/proteasome degradation pathway.

[4] = through induction of SREBP-1c; cited from earlier work
[5] = tested on: LXR targets; assay: LXR target mRNAs in livers of mice fed T0901317 (real-time PCR); format: in vivo, mouse; conditions: 10 mg/kg oral gavage, 8 days
Source text: Total RNA was isolated from mouse livers, testes, thioglycolate-stimulated peritoneal macrophages, and ovaries by a Qiagen RNeasy mini-kit (Qiagen Inc., Calencia, Ca.). For real-time PCR analysis, cDNA was synthesized by SuperScript III reverse transcriptase (Invitrogen, Carlsbad, Calif.) with random primers. The resulting cDNA was then subjected to PCR analysis with gene-specific primers in the presence of Cybergreen (Qiagen Inc., Calencia, Ca.). Relative abundance of mRNA was obtained by normalization to cyclophilin levels. […] The mRNA levels of ABCA1 were quantified by phosphoimager and normalized against the corresponding actin levels.
To gain further insight into the effect of SIRT1 on LXR function in vivo, wildtype and SIRT1^−/− animals were analyzed for their response to 8-day oral administration of the LXR agonist T0901317 (N-(2,2,2-trifluoro-ethyl)-N-[4-(2,2,2-trifluoro-1-hydroxy-1-trifluoromethyl-ethyl)-phenyl]-benzenesulfonamide)^53.
2-6 month old SIRT1−/− and control males were fed with T0901317 (10 mg/kg) by oral gavage, plasma were collected before and after feeding for plasma lipid analyses. […] Total RNA from liver of wildtype animals without (black filled bar) or fed with 10 mg/kg T0901317 (black striped bar) and SIRT1^−/− mice without (open bar) or with T0901317 (gray striped bar) were analyzed by real-time PCR. […]

[6] = plasma and liver lipids of mice after 8-day oral T0901317; format: in vivo, mouse
Procedure: To determine the total cholesterol levels in mouse tissues, SIRT1^−/− mice and control littermates were fasted for four hours from the beginning of the daylight cycle before sacrificing. Tissues were then harvested and weighted. Total cholesterol from liver and testis were extracted and measured by GC as described previously^70, 71. Total lipids including triglycerides were also dissolved into a solution containing 60% butanol, 13% methanol, and 27% Triton X-100, and measured with the enzymatic, colorimetric assay kits from Wako.
2-6 month old SIRT1−/− and control males were fed with T0901317 (10 mg/kg) by oral gavage, plasma were collected before and after feeding for plasma lipid analyses. Tissues were collected after feeding for further analyses. Total RNA from liver of wildtype animals without (black filled bar) or fed with 10 mg/kg T0901317 (black striped bar) and SIRT1^−/− mice without (open bar) or with T0901317 (gray striped bar) were analyzed by real-time PCR. […] However, the induction of these targets in SIRT1^−/− mice was blunted. Total protein lysates were obtained from livers of indicated mice and analyzed for the levels of ABCA1 protein by immunoblotting (FIG. 3c). (As previously observed, ABCA1 proteins comprise multiple bands by western blotting^78.)
Plasma results in FIG. 3, panels d, e, and f represent the same mice before and after 8-days administration of T0901317. […]

[7] = tested on: THP-1 cells; assay: apoAI-mediated [3H]cholesterol efflux from THP-1 cells; format: cell-based, human; conditions: THP-1, 10 mM nicotinamide for 48 h, efflux to 15 μg/ml apoAI for 24 h
Procedure: For the human monocytic cell line THP-1 cells, cells were treated with 10 mM nicotinamide in RPMI1640/10% FBS for 48 h, then cholesterol loaded with 50 μg/ml of LDL and 1 μCi/ml of [^3H]cholesterol in RPMI1640/1% FBS/0.2% BSA medium for 24 h. Cells were washed with PBS and incubated in RPMI 1640/0.2% BSA with or without 15 μg/ml apoAI for 24 h. The medium and cells were then separated, and cells were lysed with 0.2N NaOH. The radioactivity recovered in the medium and cell lysates were measured and the apoAI-mediated cholesterol efflux was calculated as described above.

[8] = biological target: T2, NH2-terminal HA-tagged mouse LXRβ
T2 chain: T1 sequence

human SIRT1 H355Y, inactive deacetylase mutant
amount of ubiquitin-conjugated LXR (anti-HA immunoprecipitation, western blot with anti-ubiquitin) [1]: but not the inactive mutant hSIRT1HY increased the amount of ubiquitin-conjugated LXR in transfected HEK293T cells

CC(C)C[C@@H](C=O)NC(=O)[C@H](CC(C)C)NC(=O)[C@H](CC(C)C)NC(=O)OCc1ccccc1 [MG132, carbobenzyloxy-Leu-Leu-Leu-al] (Cbz-Leu-Leu-Leu-aldehyde)
basal activity of control reporter missing the LXRE [2]: not altered | induction of luciferase reporter driven by wildtype ABCA1 promoter [2]: inhibited the reporter to the same extent as nicotinamide | levels of HA-LXRβ protein [3]: increase the steady state levels of LXR | levels of HA-LXRβ protein when SIRT1 is inhibited by nicotinamide ([3]; 25 μM MG132 plus 10 mM nicotinamide (lane 4 vs. lane 5)): not when SIRT1 is inhibited by nicotinamide

CC(/C=C/C(=O)NO)=C\[C@@H](C)C(=O)c1ccc(N(C)C)cc1 [TSA, Trichostatin A]
inhibition of 22(R)—HC+9-cisRA-induced luciferase expression, wildtype ABCA1 promoter [2]: not inhibited

O=S(=O)(c1ccccc1)N(CC(F)(F)F)c1ccc(C(O)(C(F)(F)F)C(F)(F)F)cc1 [T0901317, N-(2,2,2-trifluoro-ethyl)-N-[4-(2,2,2-trifluoro-1-hydroxy-1-trifluoromethyl-ethyl)-phenyl]-benzenesulfonamide]
plasma and hepatic triglycerides [4]: elevation of plasma and hepatic triglycerides | induction of LXR targets SREBP-1c, LPL and ABCA1 in liver ([5]; SIRT1−/− mice): blunted | expression of LXR targets SREBP-1c, LPL and ABCA1 at the RNA level in liver ([5]; wildtype mice): significantly induced | induction of plasma and hepatic triglyceride accumulation ([6]; SIRT1−/− vs wildtype mice, 10 mg/kg oral, 8 days): reduced response | plasma cholesterol levels after feeding ([6]; SIRT1−/− vs wildtype treated mice, especially HDL size particles): Lower plasma cholesterol levels

NC(=O)c1cccnc1 [nicotinamide]
inhibition of 22(R)—HC+9-cisRA-induced luciferase expression, wildtype ABCA1 promoter [2]: 50% | basal activity of control reporter missing the LXRE [2]: not altered | induction of luciferase reporter driven by wildtype ABCA1 promoter [2]: blunted the induction | levels of HA-LXRβ protein [3]: elevated levels | suppression of apoAI-mediated [3H]cholesterol efflux [7]: roughly three-fold

B1: human SIRT1 protein (protein)
chain: MADEAALALQPGGSPSAAGADREAASSPAGEPLRKRPRRDGPGLERSPGEPGGAAPEREVPAAARGCPGAAAAALWREAEAEAAAAGGEQEAQATAAAGEGDNGPGLQGPSREPPLADNLYDEDDDDEGEEEEEAAAAAIGYRDNLLFGDEIITNGFHSCESDEEDRASHASSSDWTPRPRIGPYTFVQQHLMIGTDPRTILKDLLPETIPPPELDDMTLWQIVINILSEPPKRKKRKDINTIEDAVKLLQECKKIIVLTGAGVSVSCGIPDFRSRDGIYARLAVDFPDLPDPQAMFDIEYFRKDPRPFFKFAKEIYPGQFQPSLCHKFIALSDKEGKLLRNYTQNIDTLEQVAGIQRIIQCHGSFATASCLICKYKVDCEAVRGDIFNQVVPRCPRCPADEPLAIMKPEIVFFGENLPEQFHRAMKYDKDEVDLLIVIGSSLKVRPVALIPSSIPHEVPQILINREPLPHLHFDVELLGDCDVIINELCHRLGGEYAKLCCNPVKLSEITEKPPRTQKELAYLSELPPTPLHVSEDSSSPERTSPPDSSVIVTLLDQAAKSNDDLDVSESKGCMEEKPQEVQTSRNVESIAEQMENPDLKNVGSSTGEKNERTSVAGTVRKCWPNRVAKEQISRRLDGNQYLFLPPNRYIFHGAEVYSDSEDDVLSSSSCGSNSDSGTCQSPSLEEPMEDESEIEEFYNGLEDEPDVPERAGGAGFGTDGDDQEAINEAISVKQEVTDMNYPSNKS
amount of ubiquitin-conjugated LXR (anti-HA immunoprecipitation, western blot with anti-ubiquitin) [8]: expression of an active SIRT1 transgene (hSIRT1) but not the inactive mutant hSIRT1HY increased the amount of ubiquitin-conjugated LXR in transfected HEK293T cells
